# In patent US10927104B2, “Ether compounds and uses thereof” (BioTheryX, Inc., priority 2017, dated 2021):
# What was measured:
# Assay type in all cases: cell-based
# IL-1β = assay: PBMC assay, LPS-induced IL-1β (Meso Scale); details: Homo sapiens, PBMCs, 100 ng/mL LPS 18-24 hrs; for inhibition at 0.1 µM: compound at 0.1 μM; for inhibition at 1 µM: compound at 1 μM
# Procedure: (§1) FIG. 1 represents the activity against IL-1-beta in peripheral blood mononuclear cells (PBMCs), plated in 96 well plates and pretreated with compound for 1 hour and then induced with 100 ng/mL LPS for 18-24 hrs. Cytokines in the media were measured according to MesoScale protocol. Negative control wells were treated with DMSO. Compound activity is measured as a percentage of LPS-induced activity.
# (§2) Frozen primary blood mononuclear cells (PBMCs) were purchased from AllCells. Cells were quick thawed, washed once with RPMI-1640/10% FBS.
# (§3) 1% Penicillin/1% Streptomycin and plated in 96 well plates at 200,000 cells per well. Cells were pretreated with DMSO only, or Compound 1 for 1 hour and then induced with 100 ng/mL lipopolysaccharide (LPS) for 18-24 hrs. The supernatant was analyzed for IL-1 beta, IL-6, and TNFα, using Meso Scale assay according to manufacturer's protocol. The negative control wells were treated with DMSO.
# (§4) Compound activity was measured as fold difference from the DMSO control. IL-1β activity is shown in FIG. 1; IL-6 activity is shown in FIG. 2; TNFα activity is shown in FIG. 3; and IL-2 activity is shown in FIG. 4. Additional data for compounds (shown as percent inhibition) at 10 μM is shown in Table 1; at 1 μM in Table 2; and at 0.1 μM in Table 3.
# IL-6 = assay: PBMC assay, LPS-induced IL-6 (Meso Scale); details: Homo sapiens, PBMCs, 100 ng/mL LPS 18-24 hrs; for inhibition at 0.1 µM: compound at 0.1 μM; for inhibition at 1 µM: compound at 1 μM
# Procedure: as §1, with “FIG. 2” for “FIG. 1”, “against IL-6” for “against IL-1-beta”, “Cytokines” for “Cytokines in the media”, “activity was” for “activity is”
# as §2, §3, §4
# TNFα = assay: PBMC assay, LPS-induced TNFα (Meso Scale); details: Homo sapiens, PBMCs, 100 ng/mL LPS 18-24 hrs; for inhibition at 0.1 µM: compound at 0.1 μM; for inhibition at 1 µM: compound at 1 μM
# Procedure: as §1, with “FIG. 3” for “FIG. 1”, “against TNFα” for “against IL-1-beta”, “protocol. The negative” for “protocol. Negative”
# as §2, §3, §4
# IL-2 = assay: Anti-CD3-induced IL-2 secretion in PBMCs (Mesoscale); details: Homo sapiens, PBMC, anti-CD3 stimulated PBMCs, 24 hr, vs DMSO control, read-out: IL-2 Fold Change; for fold induction at 0.1 µM: compound at 0.1 μM; for fold induction at 1 µM: compound at 1 μM
# Procedure: FIG. 4 represents Anti-CD3-induced IL-2 secretion in PBMCs. 1 μg/mL anti-CD3 (OKT-3) antibody in PBS coated onto 96-well plates overnight at 4° C. Approximately, 550,000 PBMCs were added to each well, followed by addition of DMSO only (control) or Compound 1. Induction was measured after 24 hrs as fold difference from the DMSO stimulated control.
# as §2
# For the IL-2 analysis, 96 well plates were precoated with 1 μg/mL anti-human CD3 antibody (OKT3, eBioscience Inc.). After washing with PBS, Compound 1 was added (50 μL/well) followed by PBMCs diluted at 3-4 million cells/mL (150 μL/well). Plates were incubated for 24 hr and the supernatants collected for Mesoscale IL-2 analysis.
# as §4
# Molm-13 cells = assay: Cell viability assay (CellTiter-Glo), Molm-13 proliferation; details: Homo sapiens, MOLM-13, 72 h, 3 days; for inhibition at 1 µM: compound at 1 μM; for inhibition at 10 µM: compound at 10 μM
# Procedure: (§5) Molm-13 and MV-4-11 cells were cultivated in RPMI-1640 (10% FBS/1% pen-strep) and were plated in white walled 96-well plates at 20,000 cells/well.
# (§6) Cells were treated with compound at the indicated concentration or DMSO (control) and the cultures were incubated for 3 days at 37° C. and 5% CO2. Following the incubation period, 100 μL of CellTiterGlow (CTG) reagent (CellTiter-Glo® Luminescent Cell Viability Assay, Promega (Madison, Wis.)) was added to each well. Following a 10 min incubation with shaking, luminescence was measured using a Victor Wallac Luminometer.
# MV-4-11 cells = assay: Cell viability assay (CellTiter-Glo), MV-4-11 proliferation; details: Homo sapiens, MV4-11, 72 h, 3 days; for inhibition at 1 µM: compound at 1 μM; for inhibition at 10 µM: compound at 10 μM
# Procedure: as §5, §6
smiles,measurement,setting,value
"O=C1CCC[C@H](N2Cc3c(OCc4ccc(CN5CCOCC5)cc4)cccc3C2=O)C(=O)N1 [Compound 1, (S)-3-(4-((4-(morpholinomethyl)benzyl)oxy)-1-oxoisoindolin-2-yl)azepane-2,7-dione]",inhibition at 0.1 µM,IL-1β,83%
same,inhibition at 1 µM,IL-1β,88%
same,inhibition at 0.1 µM,IL-6,63%
same,inhibition at 1 µM,IL-6,71%
same,inhibition at 0.1 µM,TNFα,89%
same,inhibition at 1 µM,TNFα,93%
same,fold induction at 0.1 µM,IL-2,2.1
same,fold induction at 1 µM,IL-2,0.8
same,inhibition at 0.1 µM,Molm-13 cells; compound at 0.1 μM,30%
same,inhibition at 1 µM,Molm-13 cells,15%
same,inhibition at 10 µM,Molm-13 cells,37%
same,inhibition at 1 µM,MV-4-11 cells,2%
same,inhibition at 10 µM,MV-4-11 cells,5%
"O=C1CCC[C@H](N2Cc3c(OCc4ccc(CN5CCOc6ccccc65)cc4)cccc3C2=O)C(=O)N1 [Compound 2, (S)-3-(4-((4-((2,3-dihydro-4H-benzo[b][1,4]oxazin-4-yl)methyl)benzyl)oxy)-1-oxoisoindolin-2-yl)azepane-2,7-dione]",inhibition at 0.1 µM,IL-1β,72%
same,inhibition at 1 µM,IL-1β,86%
same,inhibition at 0.1 µM,IL-6,43%
same,inhibition at 1 µM,IL-6,67%
same,inhibition at 0.1 µM,TNFα,81%
same,inhibition at 1 µM,TNFα,90%
same,fold induction at 0.1 µM,IL-2,1.3
same,fold induction at 1 µM,IL-2,2.3
same,inhibition at 1 µM,Molm-13 cells,5%
same,inhibition at 10 µM,Molm-13 cells,30%
same,inhibition at 1 µM,MV-4-11 cells,6%
same,inhibition at 10 µM,MV-4-11 cells,16%
O=C1CCC[C@H](N2Cc3c(OCc4ccc(CN5CCOCC5)c(Cl)c4)cccc3C2=O)C(=O)N1 [Compound 3],inhibition at 0.1 µM,IL-1β,91%
same,inhibition at 1 µM,IL-1β,93%
same,inhibition at 10 µM,IL-1β; compound at 10 μM,93%
same,inhibition at 0.1 µM,IL-6,72%
same,inhibition at 1 µM,IL-6,79%
same,inhibition at 10 µM,IL-6; compound at 10 μM,77%
same,inhibition at 0.1 µM,TNFα,91%
same,inhibition at 1 µM,TNFα,93%
same,inhibition at 10 µM,TNFα; compound at 10 μM,94%
same,fold induction at 0.1 µM,IL-2,2
same,fold induction at 1 µM,IL-2,0.7
same,inhibition at 1 µM,Molm-13 cells,1%
same,inhibition at 10 µM,Molm-13 cells,29%
same,inhibition at 1 µM,MV-4-11 cells,0%
same,inhibition at 10 µM,MV-4-11 cells,20%
"NCc1ccc(COc2cccc3c2CN([C@H]2CCCC(=O)NC2=O)C3=O)cc1 [Compound 5, trifluoroacetic acid]",inhibition at 0.1 µM,IL-1β,64%
same,inhibition at 0.1 µM,IL-6,37%
same,inhibition at 0.1 µM,TNFα,55%
same,fold induction at 0.1 µM,IL-2,1.2
same,fold induction at 1 µM,IL-2,2.1
same,inhibition at 10 µM,Molm-13 cells,40%
same,inhibition at 1 µM,MV-4-11 cells,1%
same,inhibition at 10 µM,MV-4-11 cells,3%
Cc1cnc(Nc2ccc(OCCCNCC(=O)NCc3ccc(COc4cccc5c4CN([C@H]4CCCC(=O)NC4=O)C5=O)cc3)cc2)nc1Nc1cccc(S(=O)(=O)NC(C)(C)C)c1 [Compound 6],inhibition at 0.1 µM,IL-1β,68%
same,inhibition at 1 µM,IL-1β,92%
same,inhibition at 0.1 µM,IL-6,42%
same,inhibition at 1 µM,IL-6,76%
same,inhibition at 0.1 µM,TNFα,62%
same,inhibition at 1 µM,TNFα,83%
same,fold induction at 0.1 µM,IL-2,1
same,fold induction at 1 µM,IL-2,2.5
same,inhibition at 10 µM,Molm-13 cells,91%
same,inhibition at 1 µM,MV-4-11 cells,0%
same,inhibition at 10 µM,MV-4-11 cells,76%
"O=C1CCC[C@H](N2Cc3c(OCc4ccc(C(=O)N5CCOCC5)cc4)cccc3C2=O)C(=O)N1 [Compound 8, (S)-3-{4-[(p-Morpholinocarbonlphenyl)methoxy]-2-isoindolinoyl}-2,7-azepanedione]",inhibition at 0.1 µM,IL-1β,73%
same,inhibition at 0.1 µM,IL-6,56%
same,inhibition at 0.1 µM,TNFα,63%
same,fold induction at 0.1 µM,IL-2,1.8
same,fold induction at 1 µM,IL-2,2.3
same,inhibition at 10 µM,Molm-13 cells,16%
same,inhibition at 1 µM,MV-4-11 cells,0%
same,inhibition at 10 µM,MV-4-11 cells,0%
